Test system: KB cells (oral carcinoma cells)
Experiment: measurement of degree of cell death by flow cytometry (annexin V-ferrocene derivative / FITC-cucurbituril derivative)
Format: cell-based
Conditions: 0.5 μM (0.3 μg/mL) doxorubicin, 3 days, versus sample not treated
Procedure: After a ferrocene derivative bound to annexin V, which is known as a protein that can selectively bind to surfaces of dead cells, was treated on cells induced to die using an anti-cancer drug, the cells were treated with an FITC-bound cucurbituril derivative, and the degree of cell death was measured through flow cytometry.
2 mL of […] culture solution (containing 10% FCS) and about 10^6 KB cells (oral carcinoma cells) (obtained from the Korean Cell Line Bank (KCLB)) were cultured in two 6-well cell culture dishes at 37° C. in a 5% CO2 condition for 48 hours.
Next, 2 mL of the RPMT-1640 culture solution (containing 10% FCS) in one of the 6-well cell culture dishes was replaced by the same, fresh culture solution, and 2 mL of the RPMT-1640 culture solution in the other 6-well cell culture dish was replaced by 0.5 μM (0.3 μg/mL) of doxorubicin, and the two culture dishes were incubated at 37° C. in a 5% CO2 condition for 3 days.
The culture solution in the two cell culture dishes incubated in (1) was removed. […]
Next, the degree of cell depth in each of the samples was measured through flow cytometry (FACSCalibur, Becton Dickinson Corp., Ex=488 nm, Em=530 nm (for FITC detection).

COc1cccc2c1C(=O)c1c(O)c3c(c(O)c1C2=O)C[C@@](O)(C(=O)CO)C[C@@H]3O[C@H]1C[C@H](N)[C@H](O)[C@H](C)O1 [doxorubicin]
degree of cell death (FITC signal, flow cytometry): most cells in the doxorubicin-treated sample died

From patent publication US7718128B2, “Application using non-covalent bond between a cucurbituril derivative and a ligand” (Postech Foundation, priority 2005, dated 2010)
